For assay [1], the system named is ODN3/ODN4 duplex (X = ^Am2dA, Y = T), dye-labelled (DNA, duplex, ^Am2dA (N6-adenosine bearing 1-aminoadamantane via C2 linker) at 6 of strand 1) CTCAGAGTAAGG/CCTTACTCTGAG
The experiment in a line: FAM/Dabcyl fluorescence time course, kout/kin. The conditions noted are these: Na+ (150 mM NaCl, sodium phosphate), apparent, host binds guest tethered to DNA, duplex dissociates, 10 mM phosphate pH 7.0, 37 °C.

Assay [2] deals with ODN1/ODN2 duplex (X = ^Am2dA, Y = T) (DNA, duplex, ^Am2dA (N6-adenosine bearing 1-aminoadamantane via C2 linker) at 6 of strand 1) CTCAGAGTAAGG/CCTTACTCTGAG
Briefly: UV melting. The conditions noted are these: Na+ (150 mM NaCl, sodium phosphate); destabilisation (Tm lowered by CB[7]); duplex 2 μM, CB[7] 4 μM; 10 mM phosphate pH 7.0.

Assay [3] deals with ODN1/ODN2 duplex (X = A, Y = T) (DNA, duplex) CTCAGAGTAAGG/CCTTACTCTGAG
The experiment in a line: UV melting. The conditions noted are these: Na+ (150 mM NaCl, sodium phosphate); no significant Tm change; duplex 2 μM, CB[7] 4 μM; 10 mM phosphate pH 7.0.

The test system of assay [4] is ODN1/ODN2 duplex (X = ^Am4dA, Y = T) (DNA, duplex, ^Am4dA (N6-adenosine bearing 1-aminoadamantane via C4 linker) at 6 of strand 1) CTCAGAGTAAGG/CCTTACTCTGAG
The experiment in a line: UV melting. The conditions noted are these: Na+ (150 mM NaCl, sodium phosphate); destabilisation (Tm lowered by CB[7]); duplex 2 μM, CB[7] 4 μM; 10 mM phosphate pH 7.0.

Assay [5] concerns ODN1/ODN2 duplex (X = ^Am3dA, Y = T) (DNA, duplex, ^Am3dA (N6-adenosine bearing 1-aminoadamantane via C3 linker) at 6 of strand 1) CTCAGAGTAAGG/CCTTACTCTGAG
The experiment in a line: UV melting. The conditions noted are these: Na+ (150 mM NaCl, sodium phosphate); destabilisation (Tm lowered by CB[7]); duplex 2 μM, CB[7] 4 μM; 10 mM phosphate pH 7.0.

On to `O=C1N2CN3C(=O)N4CN5C(=O)N6CN7C(=O)N8CN9C(=O)N%10CN%11C(=O)N%12CN%13C(=O)N%14CN1C1C2N2CN%15C(=O)N(CN%16C(=O)N(CN%17C(=O)N(CN%18C(=O)N(CN%19C(=O)N(CN%20C(=O)N(CN1C2=O)C%14C%13%20)C%12C%11%19)C%10C9%18)C8C7%17)C6C5%16)C4C3%15` (centres unmarked), for which, in assay [1], the Kd is 1.0 × 10^–9 M. Besides, the ΔTm is 20.4 °C in assay [2], 4.7 °C in assay [4] and 3.6 °C in assay [5]. Further, in assay [3], the binding result is on record as “no”.

Values taken from paper PMC11240562 (2024).
